Each molecule was assayed against unphosphorylated-BTK kinase domain (UP-BTK), GST-tagged human BTK (389-659aa) (Homo sapiens (Human), UniProt Q06187) (assay: BTK kinase Lanthascreen binding assay). Conditions: negative log of the IC50 in molar; 60 minutes incubation with 50 nM Tracer 236.
Procedure: BTK Kinase Lanthascreen Binding Assay:
A BTK kinase lanthascreen binding assay monitors compound binding to unphosphorylated-BTK kinase domain (UP-BTK), by competing with a fluorescent labeled tracer. […] Data were analyzed using Xlfit™ version 5.3 from ID Business Solutions (Guildford), Microsoft Excel add-in. pIC50 refers to the negative log of the IC50 in molar.

unphosphorylated-BTK kinase domain (UP-BTK), GST-tagged human BTK (389-659aa), sequence (Q06187 389-659): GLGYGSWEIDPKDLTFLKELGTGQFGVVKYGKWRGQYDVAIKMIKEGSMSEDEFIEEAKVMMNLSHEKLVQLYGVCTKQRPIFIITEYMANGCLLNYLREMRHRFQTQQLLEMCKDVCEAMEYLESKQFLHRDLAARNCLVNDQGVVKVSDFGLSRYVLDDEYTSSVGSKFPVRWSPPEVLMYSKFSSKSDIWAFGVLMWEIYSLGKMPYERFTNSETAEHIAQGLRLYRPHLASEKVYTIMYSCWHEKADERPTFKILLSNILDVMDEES

Compound	BTK_I_binding pIC50
C=CC(=O)N1CCC[C@@H](NC(=O)c2sc3nccc4c3c2NC(=O)N4c2ccc(OC3CCOCC3)cc2C)C1 (single isomer, unassigned) [Example 675, (R)—N-(1-Acryloylpiperidin-3-yl)-5-(*R)-(2-methyl-4-((tetrahydro-2H-pyran-4-yl)oxy)phenyl)-4-oxo-4,5-dihydro-3H-1-thia-3,5,8-triazaacenaphthylene-2-carboxamide]	7.2
C=CC(=O)N1CCC[C@@H](NC(=O)c2sc3nccc4c3c2NC(=O)N4c2cnc(OC3CCC3)cc2C)C1 (single isomer, unassigned) [Example 700, (R)—N-(1-Acryloylpiperidin-3-yl)-5-(*R)-(6-cyclobutoxy-4-methylpyridin-3-yl)-4-oxo-4,5-dihydro-3H-1-thia-3,5,8-triazaacenaphthylene-2-carboxamide]	8.1
C=CC(=O)N1CCC[C@@H](NC(=O)c2sc3nccc4c3c2NC(=O)N4c2ccc(OC3CCOCC3)cc2C)C1 (single isomer, unassigned) [Example 742, (R)—N-(1-Acryloylpiperidin-3-yl)-5-(*S)-(2-methyl-4-((tetrahydro-2H-pyran-4-yl)oxy)phenyl)-4-oxo-4,5-dihydro-3H-1-thia-3,5,8-triazaacenaphthylene-2-carboxamide]	5.8
C=CC(=O)N1CC[C@@H](NC(=O)c2sc3nccc4c3c2NC(=O)N4c2cnc(CC(C)C)cc2C)C1 (single isomer, unassigned) [Example 747, (R)—N-(1-Acryloylpyrrolidin-3-yl)-5-(*S)-(6-isobutyl-4-methylpyridin-3-yl)-4-oxo-4,5-dihydro-3H-1-thia-3,5,8-triazaacenaphthylene-2-carboxamide]	7.5
C=CC(=O)N1CC[C@@H](NC(=O)c2sc3nccc4c3c2NC(=O)N4c2cnc(CC(C)C)cc2C)C1 (single isomer, unassigned) [Example 756, (R)—N-(1-Acryloylpyrrolidin-3-yl)-5-(*R)-(6-isobutyl-4-methylpyridin-3-yl)-4-oxo-4,5-dihydro-3H-1-thia-3,5,8-triazaacenaphthylene-2-carboxamide]	<6
CCC(=O)N1CCC[C@@H](NC(=O)c2sc3nccc4c3c2NC(=O)N4c2cnc(CC(C)C)cc2C)C1 (single isomer, unassigned) [Example 765, (R)-5-(*S)-(6-Isobutyl-4-methylpyridin-3-yl)-4-oxo-N-(1-propionylpiperidin-3-yl)-4,5-dihydro-3H-1-thia-3,5,8-triazaacenaphthylene-2-carboxamide]	6.5
C=CC(=O)N1CCC[C@@H](NC(=O)c2sc3nccc4c3c2NC(=O)N4c2cnc(OCC(C)C)cc2C)C1 (single isomer, unassigned) [Example 766, (R)—N-(1-Acryloylpiperidin-3-yl)-5-(*S)-(6-isobutoxy-4-methylpyridin-3-yl)-4-oxo-4,5-dihydro-3H-1-thia-3,5,8-triazaacenaphthylene-2-carboxamide]	8.2
C=CC(=O)N1CCC[C@@H](NC(=O)c2sc3nccc4c3c2NC(=O)N4c2cnc(OCC(C)C)cc2C)C1 (single isomer, unassigned) [Example 767, (R)—N-(1-Acryloylpiperidin-3-yl)-5-(*R)-(6-isobutoxy-4-methylpyridin-3-yl)-4-oxo-4,5-dihydro-3H-1-thia-3,5,8-triazaacenaphthylene-2-carboxamide]	<6
C=CC(=O)N1CC[C@@H](NC(=O)c2sc3nccc4c3c2NC(=O)N4c2cnc(OC3CCCC3)cc2C)C1 (single isomer, unassigned) [Example 776, (R)—N-(1-Acryloylpyrrolidin-3-yl)-5-(*S)-(6-(cyclopentyloxy)-4-methylpyridin-3-yl)-4-oxo-4,5-dihydro-3H-1-thia-3,5,8-triazaacenaphthylene-2-carboxamide]	8.1

Other lines, results leading:

BTK_I_binding pIC50	Compound
5.9	C=CC(=O)N1CCC[C@@H](NC(=O)c2sc3nccc4c3c2NC(=O)N4c2ccc(OC(F)(F)F)cc2C)C1 (single isomer, unassigned) [Example 624, (R)—N-(1-Acryloylpiperidin-3-yl)-5-(*R)-(2-methyl-4-(trifluoromethoxy)phenyl)-4-oxo-4,5-dihydro-3H-1-thia-3,5,8-triazaacenaphthylene-2-carboxamide]
8.3	C=CC(=O)N1CCC[C@@H](NC(=O)c2sc3nccc4c3c2NC(=O)N4c2ccc(Oc3ccccc3)nc2C)C1 (single isomer, unassigned) [Example 661]
8.1	C=CC(=O)N1CCC[C@@H](NC(=O)c2sc3nccc4c3c2NC(=O)N4c2cnc(CC(C)C)cc2C)C1 (single isomer, unassigned) [Example 669, (R)—N-(1-Acryloylpiperidin-3-yl)-5-(*S)-(6-isobutyl-4-methylpyridin-3-yl)-4-oxo-4,5-dihydro-3H-1-thia-3,5,8-triazaacenaphthylene-2-carboxamide]
7.6	C=CC(=O)N1CCC[C@@H](NC(=O)c2sc3nccc4c3c2NC(=O)N4c2ccc(Oc3ccccc3)nc2C)C1 (single isomer, unassigned) [Example 690, (R)—N-(1-Acryloylpiperidin-3-yl)-5-(*R)-(2-methyl-6-phenoxypyridin-3-yl)-4-oxo-4,5-dihydro-3H-1-thia-3,5,8-triazaacenaphthylene-2-carboxamide]
6.0	C=CC(=O)N1CCC[C@@H](NC(=O)c2sc3nccc4c3c2NC(=O)N4c2cnc(Oc3ccccc3)cc2C)C1 (single isomer, unassigned) [Example 691, (R)—N-(1-Acryloylpiperidin-3-yl)-5-(*R)-(4-methyl-6-phenoxypyridin-3-yl)-4-oxo-4,5-dihydro-3H-1-thia-3,5,8-triazaacenaphthylene-2-carboxamide]
8.0	C=CC(=O)N1CC[C@@H](NC(=O)c2sc3nccc4c3c2NC(=O)N4c2ccc(Oc3ccccc3)nc2C)C1 (single isomer, unassigned) [Example 716, (R)—N-(1-Acryloylpyrrolidin-3-yl)-5-(*S)-(2-methyl-6-phenoxypyridin-3-yl)-4-oxo-4,5-dihydro-3H-1-thia-3,5,8-triazaacenaphthylene-2-carboxamide]
6.4	C=CC(=O)N1CCC[C@@H](NC(=O)c2sc3nccc4c3c2NC(=O)N4c2cnc(CC(C)C)cc2C)C1 (single isomer, unassigned) [Example 722, (R)—N-(1-Acryloylpiperidin-3-yl)-5-(*R)-(6-isobutyl-4-methylpyridin-3-yl)-4-oxo-4,5-dihydro-3H-1-thia-3,5,8-triazaacenaphthylene-2-carboxamide]

Same assay, conditions: unphosphorylated-BTK kinase domain; 60 minutes incubation; pIC50 = negative log of the IC50 in molar

Compound	BTK_I_binding pIC50
CCOC(C)(C)/C=C(\C#N)C(=O)N1CCC[C@@H](NC(=O)c2sc3nccc4c3c2NC(=O)N4c2ccc(Oc3ccccc3)cc2C)C1 (single isomer, unassigned) [Example 480, (R,*E)-N-(1-(2-Cyano-4-ethoxy-4-methylpent-2-enoyl)piperidin-3-yl)-5-(*R)-(2-methyl-4-phenoxyphenyl)-4-oxo-4,5-dihydro-3H-1-thia-3,5,8-triazaacenaphthylene-2-carboxamide]	7.2
CCOC(C)(C)/C=C(\C#N)C(=O)N1CCC[C@@H](NC(=O)c2sc3nccc4c3c2NC(=O)N4c2ccc(Oc3ccccc3)cc2C)C1 (single isomer, unassigned) [Example 487, (R,E)-N-(1-(2-Cyano-4-ethoxy-4-methylpent-2-enoyl)piperidin-3-yl)-5-(*S)-(2-methyl-4-phenoxyphenyl)-4-oxo-4,5-dihydro-3H-1-thia-3,5,8-triazaacenaphthylene-2-carboxamide]	7.6
Cc1cc(Oc2ccccc2)ccc1N1C(=O)Nc2c(C(=O)N[C@@H]3CCCN(C(=O)/C(C#N)=C/C4CC4)C3)sc3nccc1c23 (single isomer, unassigned) [Example 514, (R,E)-N-(1-(2-Cyano-3-cyclopropylacryloyl)piperidin-3-yl)-5-(*S)-(2-methyl-4-phenoxyphenyl)-4-oxo-4,5-dihydro-3H-1-thia-3,5,8-triazaacenaphthylene-2-carboxamide]	7.7
Cc1cc(Oc2ccccc2)ccc1N1C(=O)Nc2c(C(=O)N[C@@H]3CCCN(C(=O)/C=C/CNS(C)(=O)=O)C3)sc3nccc1c23 (single isomer, unassigned) [Example 532, (R,E)-5-(*S)-(2-Methyl-4-phenoxyphenyl)-N-(1-(4-(methylsulfonamido)but-2-enoyl)piperidin-3-yl)-4-oxo-4,5-dihydro-3H-1-thia-3,5,8-triazaacenaphthylene-2-carboxamide]	7.4

Results, then the molecule that gave them:

BTK_I_binding pIC50	Compound
7.8	C=CC(=O)N1CCC[C@@H](NC(=O)c2sc3nccc4c3c2NC(=O)N4c2ccc(OC(F)(F)F)cc2C)C1 (single isomer, unassigned) [Example 505, (R)—N-(1-Acryloylpiperidin-3-yl)-5-(*S)-(2-methyl-4-(trifluoromethoxy)phenyl)-4-oxo-4,5-dihydro-3H-1-thia-3,5,8-triazaacenaphthylene-2-carboxamide]
7.8	Cc1cc(Oc2ccccc2)ccc1N1C(=O)Nc2c(C(=O)N[C@@H]3CCCN(C(=O)/C=C/CN)C3)sc3nccc1c23 (single isomer, unassigned) [Example 511, (R,E)-N-(1-(4-Aminobut-2-enoyl)piperidin-3-yl)-5-(*S)-(2-methyl-4-phenoxyphenyl)-4-oxo-4,5-dihydro-3H-1-thia-3,5,8-triazaacenaphthylene-2-carboxamide]
7.6	C=CC(=O)N1CC[C@H](NC(=O)c2sc3nccc4c3c2NC(=O)N4c2ccc(Oc3ccccc3)cc2C)C1 (single isomer, unassigned) [Example 518, (S)—N-(1-Acryloylpyrrolidin-3-yl)-5-(*S)-(2-methyl-4-phenoxyphenyl)-4-oxo-4,5-dihydro-3H-1-thia-3,5,8-triazaacenaphthylene-2-carboxamide]
